The text below walks through data of patent publication US20260139017A1, “COMPOSITIONS AND METHODS USING REELIN IN ALZHEIMER'S DISEASE” (The General Hospital Corporation, priority 2022, published 2026).

For one test, the target named is T1, APOER2 (Homo sapiens, UniProt Q14114).
T1 construct: purchased OnGene (so in the source)
T1 sequence (Q14114 33-963): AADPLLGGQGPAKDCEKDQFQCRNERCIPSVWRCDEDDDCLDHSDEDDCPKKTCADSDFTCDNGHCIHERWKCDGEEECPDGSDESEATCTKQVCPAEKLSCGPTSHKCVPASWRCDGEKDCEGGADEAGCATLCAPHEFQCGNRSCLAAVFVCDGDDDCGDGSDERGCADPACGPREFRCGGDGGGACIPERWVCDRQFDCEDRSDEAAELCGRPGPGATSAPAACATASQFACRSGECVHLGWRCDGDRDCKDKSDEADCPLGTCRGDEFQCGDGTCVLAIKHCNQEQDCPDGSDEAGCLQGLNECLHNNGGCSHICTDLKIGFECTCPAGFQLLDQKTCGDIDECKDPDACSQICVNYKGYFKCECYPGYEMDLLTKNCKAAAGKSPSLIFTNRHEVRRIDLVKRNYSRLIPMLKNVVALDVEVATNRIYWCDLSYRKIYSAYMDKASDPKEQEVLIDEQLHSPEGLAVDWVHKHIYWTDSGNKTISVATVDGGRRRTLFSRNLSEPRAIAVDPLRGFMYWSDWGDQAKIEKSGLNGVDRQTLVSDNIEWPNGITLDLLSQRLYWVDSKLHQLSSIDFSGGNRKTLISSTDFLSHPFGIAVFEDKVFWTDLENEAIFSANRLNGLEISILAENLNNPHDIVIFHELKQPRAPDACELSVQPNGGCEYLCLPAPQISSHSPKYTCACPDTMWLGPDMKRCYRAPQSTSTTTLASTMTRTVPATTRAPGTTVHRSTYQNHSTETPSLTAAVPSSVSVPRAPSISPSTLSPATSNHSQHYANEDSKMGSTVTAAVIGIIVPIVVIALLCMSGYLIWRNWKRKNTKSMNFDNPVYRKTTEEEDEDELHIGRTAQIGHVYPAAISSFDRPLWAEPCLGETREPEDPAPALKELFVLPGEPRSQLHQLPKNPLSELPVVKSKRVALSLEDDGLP
The test is described as follows: ELISA cell-free binding of RELN variants to ApoEr2. Here is the method: (§1) Enzyme-linked immunosorbent assay (ELISA) was used to quantify changes in binding of RELN variants (media-derived full-length or CTR-RELN) to either VLDLr or ApoEr2 following an optimized version of a previously published protocol (6). Briefly, ELISA strips (DY008, R&D Systems) were coated with one ng/μL (100 μL/well) of VLDLr (8444-VL, R&D) or ApoEr2 (TP320903, OnGene) receptors diluted in 25 mM Tris HCl, 140 mM NaCl, […], two mM CaCl2), pH 7.4 (TBS-C buffer). After 18 h at four ° C. incubation, plates were blocked one h with three % BSA (22070008-6, Bioworld), 0.05% Tween-20 (Sigma Aldrich) TBS-C buffer. We assessed binding via incubation with 100 μL/well of serial dilutions of recombinant RELN protein (Ser1221-Gln2666, 8546-MR-050, R&D) or RELN variants in TBS-C buffer for one hour at room temperature. For detection, we used goat anti-mouse RELN primary antibody (LS-C793521-100, LS-Bio, 1:2,000, 100 μL/well) as primary antibody for one h at R.T. and (1:10,000; 100 μL/well, donkey anti-goat IgG H&L, HRP, ab6885, Abcam) as secondary antibody for 30 min. at R.T. Between each of the previous steps, plates were washed four times with TBS-C buffer (200 μL/well). Plates were washed three times prior to initiating the colorimetric reaction (DY008, R&D Systems). Stop solution (50 μL/well, DY008, R&D Systems) was added upon five min. incubation and the absorbance of the samples was measured at 450 nm using the Synergy 2 microplate reader (BioTek Instruments). Processing and analysis of the data was done using Gen5 1.11 software and GraphPad Prism, respectively.
For orientation: An ELISA detects its analyte on a solid surface through an enzyme-linked reagent.

The next test concerns the target T2, VLDLr (Homo sapiens, UniProt P98155).
T2 construct: purchased R&D 8444-VL
As to the kind of experiment: ELISA cell-free binding of RELN variants to VLDLr. Here is the method: as §1

A short description of test [1]: Surface plasmon resonance (SPR) binding of CTR-RELN peptides to heparin-coated chip. The note with it: SPR kinetic constants. Here is the method: Surface plasmon resonance assay (SPR) was used for performing binding kinetics using a Biacore 3000 Instrument (GE Healthcare) at 25° C. following previously published protocols (7 24) as fee-for-service by Precision Antibody (Maryland, USA). Biotin-labeled heparin (B9806, Sigma Aldrich) was covalently linked to streptavidin-coated chip and unoccupied sites were blocked with biocytin. Antigen was flowed over the chip using a range of single analyte concentrations prepared in DPBS buffer and using a flow rate of 30 μL/min. Binding of antigen to the ligand was monitored in real time to obtain on (ka) and off (kd) rates. The equilibrium constant (KD) was calculated from the observed ka and kd. Accuracy of the SPR analysis was determined via Chi square (χ2) analysis as described in the statistical analysis section. We included in the analyses the WT and H3447R peptides and peptides with the hypothetical H3447D change ([…])(SEQ ID NO:57) and the H3447K change ([…])(SEQ ID NO:58), also produced and purified by Innovagen (Sweden).
Surface plasmon resonance assay (SPR) was used for performing binding kinetics using a Biacore 3000 Instrument (GE Healthcare) at 25° C. following previously published protocols 34 24 fee-for-service by Precision Antibody (Maryland, USA). Heparin was covalently linked to streptavidin coated chip at 13 response units (RU) concentration and unoccupied sites were blocked with biocytin. Antigen was flowed over the chip using a range of single analyte concentrations prepared in DPBS buffer and using a flow rate of 30 μL/min. Binding of antigen to the ligand was monitored in real time to obtain on (ka) and off (kd) rates. The equilibrium constant (KD) was calculated from the observed ka and kd. Accuracy of the SPR analysis was determined via Chi square (2) analysis as described in the statistical analysis section.

Another test deals with T3, Aβ42 (Homo sapiens, UniProt P05067).
T3 construct: SensoLyte ThT O-Amyloid (1-42) Aggregation kit
The test is described as follows: Thioflavin T (ThT) Aβ aggregation assay. The class given is biochemical. As to conditions: Aβ42 55 μM, 10 μM peptide; vs Aβ alone. The method, then:
Therefore, the ThT assay can be used to quantify AB aggregation using previously developed methods (40).
We incubated CTR-RELN with Aβ and monitored aggregation using a ThioflavinT fluorescence assay normalized to the maximum ThT emission of Aβ only. We also assayed Aβ in the presence of morin, a known inhibitor (41), as a […]. Long and short WT and H3447R RELN CTR peptides were included to better understand the potential role of the H3447R mutation in amyloid pathology (FIGS. 14 and 15. Negative controls included long and short RELN CTR peptides with neutrally charged AAs (histidines) in place of basic AAs in the alpha- and beta-GAG binding sites.
A Thioflavin T (ThT) assay was also performed using synthetic Reelin peptides to assess the differential effects of these proteins on Aβ42 aggregation in vitro using Thioflavin T (SensoLyte ThT O-Amyloid (1-42) Aggregation kit, catalog no. ΔS-72214). Aβ42 was added to a final concentration of 55 μM in solutions of 10 μM of Reelin peptide variants in a transparent, no-binding 96-well plate. Samples were then mixed with 2 mM Thioflavin T dye and fluorescence was read at excitation wavelength/emission wavelength (Ex/Em)=440/484 nm at intermittent time intervals over 2 h. The plate was kept at 37° C. with 15 s shaking between reads. […] In general, it appears that the RELN Cterm domain is highly unstructured. […] If the mini-RELN includes the C-term domain only without a receptor binding domain then the protection will not involve signaling, but will still involve direct interactions with tau. If the mini-RELN includes the C-term domain and the receptor binding domain, it will have at least two protective mechanisms, namely RELN signaling and direct interactions with tau.

Test [2] can be described thus: Heparin HPLC, peak retention time in KCl elution. Type of test: binding. The note with it: isocratic 1M KCl elution, long and short peptides. The method, then: […] 50 μl of 0.3 μg/μL uncleaved or cleaved WT Reelin peptide was used at 0.3 ml/min in 0.15MKCl, 10 mM PBS. 0-13.5 min: 0.15M KCl to load sample, 13.5-14.5 min: ramp to 0.5M KCl, 14.5-24.5 min: 0.5-1M KCl gradient (ramp), 24.5-45 min: 1M KCl (isocratic elution), 45-55 min: 1M KCl at 0.6 ml/min (wash), 55.0-56.0 min: ramp to 0.15M KCl at 0.3 ml/min, 56.0-59.0 min: 0.15M KCl (reset column). Fluorescence Intensities were measured at an excitation wavelength of 260 nm and emission wavelength of 290 nm, based on fluorescence properties of aromatic amino acids. To assess fluorescence properties of peptides, 15 ul of ˜0.6 ug/mL of peptide was diluted in 500 μL of 0.15MKCl, 10 mM PBS, and peak excitation and emission of peptides was calculated from the 2D graphical data.
The column chromatography method was adapted from previous research from the laboratory (2). Based on the column chromatography data, the initial protocol used a NaCl gradient from 0-1 M and a 5M salt wash to reset the HPLC column. However, the high salt gradient was corrosive to the HPLC machine parts. Therefore, KCl was considered because the […]. A lower molar concentration of a buffer with KCl could be used to disrupt heparin—Reelin CTR interactions compared to NaCl to help keep the HPLC pumps free of residual salts and potential corrosion. Since a lower concentration of salt was used, the amount of time needed at an […] hold of 1M KCl was extended until the peptide signal could not be detected before the column was equilibrated for the next sample.

Another test has as its target T4, NRP1 (Homo sapiens, UniProt O14786).
T4 construct: purchased R&D 3870-N1-025
T4 sequence (O14786 22-644 isoform O14786-2 limits assumed): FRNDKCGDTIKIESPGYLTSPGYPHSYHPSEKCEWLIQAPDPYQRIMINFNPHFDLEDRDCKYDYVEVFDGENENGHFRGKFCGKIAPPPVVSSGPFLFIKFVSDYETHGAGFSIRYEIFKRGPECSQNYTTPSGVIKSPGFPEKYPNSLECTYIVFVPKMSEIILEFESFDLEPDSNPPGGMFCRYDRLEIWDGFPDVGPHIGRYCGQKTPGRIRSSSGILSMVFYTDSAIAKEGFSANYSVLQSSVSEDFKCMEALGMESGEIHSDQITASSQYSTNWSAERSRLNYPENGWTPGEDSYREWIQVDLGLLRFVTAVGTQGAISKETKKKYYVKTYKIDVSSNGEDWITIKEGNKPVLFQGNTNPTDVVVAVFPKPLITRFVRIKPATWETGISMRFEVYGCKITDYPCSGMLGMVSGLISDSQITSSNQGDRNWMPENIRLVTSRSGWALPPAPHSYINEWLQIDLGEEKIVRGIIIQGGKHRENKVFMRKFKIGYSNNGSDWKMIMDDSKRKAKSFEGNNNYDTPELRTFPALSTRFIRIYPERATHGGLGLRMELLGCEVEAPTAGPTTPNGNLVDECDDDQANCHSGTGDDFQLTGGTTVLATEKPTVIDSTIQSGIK
As to the kind of experiment: Bio-layer interferometry (BLI) of CTR-RELN-NRP-1 interactions. The class given is binding. The method, then:
Bio-layer interferometry (BLI) was additionally used to assess NRP1-protein kinetics at 30° C. and 1000 rpm agitation. 1 mg/mL NRP1 (R&D 3870-N1-025) was biotinylated at a 1:2 molar ratio, desalted, and immobilized on the SA biosensor tip (Pall ForteBio) surface. This was followed by 1) 180 seconds baseline buffer diluent, 2) loading of the ligand (NRP1), 3) 180 seconds baseline buffer diluent, 4) 240 seconds association (analyte), and 5) 300 seconds disassociation in assay buffer. Assay buffer: SD Buffer (pH7.4 PBS, 0.05% tween20, 0.01% BSA).
The experimental data were fit with the 1:1 binding model and analyzed with global fitting using Octet Data Analysis software to calculate KD.
Bio-layer interferometry (BLI) was used to assess NRP1-protein kinetics at 30° C. and 1000 rpm agitation using previously published methods. 1 mg/mL NRP1 (R&D 3870-N1-025) was biotinylated at a 1:2 molar ratio, desalted, and immobilized on the SA biosensor tip (Pall ForteBio) surface. This was followed by 1) 180 seconds baseline buffer diluent, 2) loading of the ligand (NRP1), 3) 180 seconds baseline buffer diluent, 4) 240 seconds association (analyte), and 5) 300 seconds disassociation in assay buffer. Assay buffer: SD Buffer (pH7.4 PBS, 0.05% tween20, 0.01% BSA).

Entries after “also recorded” stand apart in the source; their conditions may differ.

T3 sequence (P05067 672-713 limits assumed): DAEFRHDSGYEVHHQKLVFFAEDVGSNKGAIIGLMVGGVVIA

“RELN WT: full-length murine recombinant RELN, wild type”: the “binding to APOER2” value in the test with APOER2 was “did not differ”. Moreover, the “binding to VLDLr” value with VLDLr was “did not differ”.
“RKQNYMMNFSRQHGLRDFYNRRRRSLRRYP [H3447D long]”: the “heparin affinity/interaction relative to WT, in words” value in test [1] is given as “reduced heparin interactions”. In addition, the “Aβ aggregation (ThT fluorescence)” value at Aβ42 is listed as “similarly decrease aggregation”. Besides, the “peak retention time on heparin HPLC” value in test [2] is recorded as “significantly less interaction; also recorded: earlier peak retention time”.
On the same counts, the results for “RKQNYMMNFSRQHGLRKFYNRRRRSLRRYP [H3447K long]” are “minimal effects”, “similarly decrease aggregation” and “increased later peak retention times”.
At NRP1 (immobilized biotinylated NRP1), “Vascular endothelial growth factor [VEGF, reference compound]” registered a ka of 272000 M⁻¹ s⁻¹ and a kd of 0.0015 s⁻¹. Moreover, on NRP1 (immobilized biotinylated NRP1, 30° C., 1:1 model), the Kd (commonly the free concentration of one partner at which half of the binding sites on the other are occupied at equilibrium, for simple one-to-one binding) was found to be 5.53 nM.
